From PMC9151729, “Experimental solubility and thermodynamic modeling of empagliflozin in supercritical carbon dioxide” (Scientific Reports, 2022)
In brackets after ≈: the same amount, converted by molar mass. Like-named read-outs stand apart in the source and are kept apart here. Marks after values point to notes of the source that are not given here.

What was measured:
[1] = Solubility of empagliflozin in supercritical carbon dioxide (isobaric-isothermal method, UV-Vis at 276 nm); type: physicochemical; details: for solubility thermodynamic at 60 min: supercritical carbon dioxide (ScCO2), thermodynamic from solid, read-out: S (equilibrium solubility) in ScCO2
Protocol: The detailed discussion of the solubility apparatus and equilibrium cell has been presented in our earlier studies (Fig. 2)[19],[25],[40],[41]. However, a brief description about the apparatus is presented in this section. This method may be classified as an isobaric-isothermal method. Each measurement was carried out with high precision and temperatures and pressures were controlled within ± 0.1 K and ± 0.1 MPa, respectively. For all measurement, 1 g of empagliflozin drug was used. As mentioned in our previous works, the equilibrium was observed within 60 min. After equilibrium, 600 µL saturated ScCO2 sample was collected via 2-status 6-way port valve in a DMSO preloaded vial. After discharging 600 µL saturated ScCO2, the port valve was washed with 1 ml DMSO. Thus, the total saturation solution was 5 ml. Each measurement was repeated thrice and their average values were reported. Mole fraction is obtained as follows:1 y2=ndrug/ndrug+nCO2 where nsolute is the moles number of the drug, and nCO2 is the moles number of CO2 in the sampling loop.
Further, the above quantities are given as:2 nsolute=Cs·Vs/Ms 3 nCO2=V1·ρ/MCO2 where Cs is the drug concentration in saturated sample vial in g/L. The volume of the sampling loop and vial collection are V1(L) = 600 × 10^–6 m^3 and Vs(L) = 5 × 10^–3 m^3, respectively. The Ms and MCO2 are the molecular weight of drug and CO2, respectively. Solubility is also described as4 S=CSVs/V1
The relation between S and y2 is5 S=ρMs/MCO2y2/1-y2
A UV–Visible spectrophotometer (Model UNICO-4802) and DMSO solvent were used for the measurement of empagliflozin solubility. The samples were analyzed at 276 nm.

[2] = Total, sublimation and solvation enthalpies from Chrastil, Reformulated Chrastil and Bartle et al. model correlations of the solubility data; type: physicochemical
Excerpt: It is an empirical model and mathematically stated as:7 lny2P/Pref=A2+B2/T+C2ρ-ρref where A2-C2 are model constants. From parameter B2 , one can estimate sublimation enthalpy using the relation, ΔsubH=-B2R , in which R is universal gas constant.
It is a semi-empirical model and mathematically stated as:9 c2=ρ1κexpA4+B4/T where κ,A4andB4 are model constants.
It is a semi-empirical model and mathematically explained as:15 y2=RTρ1/MCFf^·^κ^′-1expA11+B11/T where κ^′,A10andB10 are model constants.
The density-based models considered in this work have different number of adjustable parameters. These parameters range from three to six numbers. The correlating ability of the models is depicted in Figs. 5, 6, 7, 8, 9, 10, 11. From the results, it is clear that all the models are able to correlate the data reasonably well and maximum AARD% is observed to be 10.4%. It is believed that, more parameter models are able to correlate the data more accurately. Sodefian et al., model is able to correlate the data with AARD = 5.84% and Akaike’s information criterion (AIC = − 637.59) (more relevant information is presented in the following section). Among density models, Bian et al., model (five parameters model) is able to correlate the data well and corresponding AARD% is 5.1%. […] Further, Chrastil and Reformulated Chrastil models are able to provide the total enthalpy. Whereas, Bartle et al., model parameters are able to provide sublimation enthalpy of the empagliflozin drug. From the magnitude difference between the total and sublimation enthalpies, a solvation enthalpy is calculated.

[3] = 308 K, 12 MPa, ScCO2 density 769 kg/m^3
[4] = 308 K, 15 MPa, ScCO2 density 817 kg/m^3
[5] = 308 K, 18 MPa, ScCO2 density 849 kg/m^3
[6] = 308 K, 21 MPa, ScCO2 density 875 kg/m^3
[7] = 308 K, 24 MPa, ScCO2 density 896 kg/m^3
[8] = 308 K, 27 MPa, ScCO2 density 914 kg/m^3
[9] = 318 K, 12 MPa, ScCO2 density 661 kg/m^3
[10] = 318 K, 15 MPa, ScCO2 density 744 kg/m^3
[11] = 318 K, 18 MPa, ScCO2 density 791 kg/m^3
[12] = 318 K, 21 MPa, ScCO2 density 824 kg/m^3
[13] = 318 K, 24 MPa, ScCO2 density 851 kg/m^3
[14] = 318 K, 27 MPa, ScCO2 density 872 kg/m^3
[15] = 328 K, 12 MPa, ScCO2 density 509 kg/m^3
[16] = 328 K, 15 MPa, ScCO2 density 656 kg/m^3
[17] = 328 K, 18 MPa, ScCO2 density 725 kg/m^3
[18] = 328 K, 21 MPa, ScCO2 density 769 kg/m^3
[19] = 328 K, 24 MPa, ScCO2 density 802 kg/m^3
[20] = 328 K, 27 MPa, ScCO2 density 829 kg/m^3
[21] = 338 K, 12 MPa, ScCO2 density 388 kg/m^3
[22] = 338 K, 15 MPa, ScCO2 density 557 kg/m^3
[23] = 338 K, 18 MPa, ScCO2 density 652 kg/m^3
[24] = 338 K, 21 MPa, ScCO2 density 710 kg/m^3
[25] = 338 K, 24 MPa, ScCO2 density 751 kg/m^3
[26] = 338 K, 27 MPa, ScCO2 density 783 kg/m^3

OC[C@H]1O[C@@H](c2ccc(Cl)c(Cc3ccc(O[C@H]4CCOC4)cc3)c2)[C@H](O)[C@@H](O)[C@@H]1O [empagliflozin]
y2 solubility in ScCO2 (mole fraction) [1, 3]: 0.0814 y2 × 10^4 (mole fraction)
y2 solubility in ScCO2 (mole fraction) [1, 4]: 0.1266 y2 × 10^4 (mole fraction)
y2 solubility in ScCO2 (mole fraction) [1, 5]: 0.1327 y2 × 10^4 (mole fraction)
y2 solubility in ScCO2 (mole fraction) [1, 6]: 0.1411 y2 × 10^4 (mole fraction)
y2 solubility in ScCO2 (mole fraction) [1, 7]: 0.1501 y2 × 10^4 (mole fraction)
y2 solubility in ScCO2 (mole fraction) [1, 8]: 0.1806 y2 × 10^4 (mole fraction)
y2 solubility in ScCO2 (mole fraction) [1, 9]: 0.0706 y2 × 10^4 (mole fraction)
y2 solubility in ScCO2 (mole fraction) [1, 10]: 0.1182 y2 × 10^4 (mole fraction)
y2 solubility in ScCO2 (mole fraction) [1, 11]: 0.1515 y2 × 10^4 (mole fraction)
y2 solubility in ScCO2 (mole fraction) [1, 12]: 0.1601 y2 × 10^4 (mole fraction)
y2 solubility in ScCO2 (mole fraction) [1, 13]: 0.2040 y2 × 10^4 (mole fraction)
y2 solubility in ScCO2 (mole fraction) [1, 14]: 0.2079 y2 × 10^4 (mole fraction)
y2 solubility in ScCO2 (mole fraction) [1, 15]: 0.0611 y2 × 10^4 (mole fraction)
y2 solubility in ScCO2 (mole fraction) [1, 16]: 0.1044 y2 × 10^4 (mole fraction)
y2 solubility in ScCO2 (mole fraction) [1, 17]: 0.1620 y2 × 10^4 (mole fraction)
y2 solubility in ScCO2 (mole fraction) [1, 18]: 0.1860 y2 × 10^4 (mole fraction)
y2 solubility in ScCO2 (mole fraction) [1, 19]: 0.2248 y2 × 10^4 (mole fraction)
y2 solubility in ScCO2 (mole fraction) [1, 20]: 0.2260 y2 × 10^4 (mole fraction)
y2 solubility in ScCO2 (mole fraction) [1, 21]: 0.0514 y2 × 10^4 (mole fraction)
y2 solubility in ScCO2 (mole fraction) [1, 22]: 0.0928 y2 × 10^4 (mole fraction)
y2 solubility in ScCO2 (mole fraction) [1, 23]: 0.2002 y2 × 10^4 (mole fraction)
y2 solubility in ScCO2 (mole fraction) [1, 24]: 0.2266 y2 × 10^4 (mole fraction)
y2 solubility in ScCO2 (mole fraction) [1, 25]: 0.2637 y2 × 10^4 (mole fraction)
y2 solubility in ScCO2 (mole fraction) [1, 26]: 0.2590 y2 × 10^4 (mole fraction)
cross over region of the solubility isotherms ([1]; ScCO2, isotherms 308 to 338 K): 16.5 MPa
solubility thermodynamic at 60 min [1, 3]: 64.3 µg/mL (≈ 143 µM)
solubility thermodynamic at 60 min [1, 4]: 106 µg/mL (≈ 235 µM)
solubility thermodynamic at 60 min [1, 5]: 116 µg/mL (≈ 256 µM)
solubility thermodynamic at 60 min [1, 6]: 126 µg/mL (≈ 281 µM)
solubility thermodynamic at 60 min [1, 7]: 138 µg/mL (≈ 306 µM)
solubility thermodynamic at 60 min [1, 8]: 169 µg/mL (≈ 375 µM)
solubility thermodynamic at 60 min [1, 9]: 47.9 µg/mL (≈ 106 µM)
solubility thermodynamic at 60 min [1, 10]: 90.1 µg/mL (≈ 200 µM)
solubility thermodynamic at 60 min [1, 11]: 123 µg/mL (≈ 272 µM)
solubility thermodynamic at 60 min [1, 12]: 135 µg/mL (≈ 300 µM)
solubility thermodynamic at 60 min [1, 13]: 181 µg/mL (≈ 402 µM)
solubility thermodynamic at 60 min [1, 14]: 186 µg/mL (≈ 412 µM)
solubility thermodynamic at 60 min [1, 15]: 31.9 µg/mL (≈ 70.7 µM)
solubility thermodynamic at 60 min [1, 16]: 70.2 µg/mL (≈ 156 µM)
solubility thermodynamic at 60 min [1, 17]: 120 µg/mL (≈ 267 µM)
solubility thermodynamic at 60 min [1, 18]: 147 µg/mL (≈ 325 µM)
solubility thermodynamic at 60 min [1, 19]: 185 µg/mL (≈ 410 µM)
solubility thermodynamic at 60 min [1, 20]: 192 µg/mL (≈ 426 µM)
solubility thermodynamic at 60 min [1, 21]: 20.4 µg/mL (≈ 45.2 µM)
solubility thermodynamic at 60 min [1, 22]: 53 µg/mL (≈ 118 µM)
solubility thermodynamic at 60 min [1, 23]: 134 µg/mL (≈ 297 µM)
solubility thermodynamic at 60 min [1, 24]: 165 µg/mL (≈ 366 µM)
solubility thermodynamic at 60 min [1, 25]: 203 µg/mL (≈ 450 µM)
solubility thermodynamic at 60 min [1, 26]: 208 µg/mL (≈ 461 µM)
Enthalpy of sublimation, ΔHsub ([2]; obtained with Bartle et al. model): ~49.653^c (approximate value) kJ/mol
Total entalpy, ΔHtotal ([2]; obtained with Chrastil model): 30.548^a kJ/mol
Total entalpy, ΔHtotal ([2]; obtained with Reformulated Chrastil model): 22.496^b kJ/mol
